From US6897209B2, “Labelled factor XIIIa substrates” (GE Healthcare Limited, priority 1997, dated 2005)

How the values were obtained:
[1] = target: T1, human plasma clots (Homo sapiens, UniProt P00488); assay: Incorporation into human plasma clots (in vitro plasma clot assay); assay type: biochemical; conditions: for % specific uptake*: % retained with thrombin − % retained no thrombin; for % retained in plasma clot assay (with thrombin): human plasma with thrombin and calcium chloride, 60 minutes, ca. 20° C.
T1 construct: Factor XIII is transformed into its active form Factor XIIIa by thrombin in the presence of calcium ions; from tissue; host or cells: human plasma, clotted in vitro with thrombin and calcium chloride
T1 sequence (P00488 39-732): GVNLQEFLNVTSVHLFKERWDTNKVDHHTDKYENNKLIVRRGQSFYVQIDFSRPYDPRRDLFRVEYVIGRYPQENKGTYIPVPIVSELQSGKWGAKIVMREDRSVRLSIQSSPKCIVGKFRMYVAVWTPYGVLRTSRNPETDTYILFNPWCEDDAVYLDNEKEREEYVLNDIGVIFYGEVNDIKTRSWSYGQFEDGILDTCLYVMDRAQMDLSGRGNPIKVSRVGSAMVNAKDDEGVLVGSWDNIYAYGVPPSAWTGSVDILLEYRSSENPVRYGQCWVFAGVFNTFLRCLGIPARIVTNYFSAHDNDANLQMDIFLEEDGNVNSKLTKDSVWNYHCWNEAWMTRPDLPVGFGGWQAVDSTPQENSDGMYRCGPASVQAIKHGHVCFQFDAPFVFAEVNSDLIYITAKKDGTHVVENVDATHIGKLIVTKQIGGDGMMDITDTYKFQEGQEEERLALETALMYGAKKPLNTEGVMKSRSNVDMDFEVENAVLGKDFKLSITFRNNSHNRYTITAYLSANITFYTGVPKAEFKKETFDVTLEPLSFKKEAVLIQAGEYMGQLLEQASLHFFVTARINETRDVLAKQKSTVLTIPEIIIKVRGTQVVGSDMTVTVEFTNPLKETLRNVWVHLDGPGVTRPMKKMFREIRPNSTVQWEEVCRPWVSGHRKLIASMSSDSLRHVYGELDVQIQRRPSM
Description: (§1) Incorporation of radiolabelled substrates into fibrin was investigated by induction of an in vitro human plasma clot in the following manner. To a siliconised 5 ml glass vial was added, (a) 800 μl of Tris(hydroxymethyl)aminomethane buffered saline pH 7.5 containing calcium chloride (50 mM Tris, 150 mM sodium chloride, 4 mM calcium chloride.), (b) 40 μl of physiological salt solution containing 100 units of thrombin per ml, (c) 400 μl of human plasma containing the radiolabelled substrate at a concentration of typically 10 kBq/ml. To aid induction of clot a roughened glass rod was added to the reaction vial. Control vials were prepared similarly but with the omission of thrombin and calcium chloride.
(§2) The proportion of total radioactivity was calculated by counting in suitable detection apparatus.
(§3) The fraction of radioactivity retained on the filter, after subtraction of the non-specific binding determined from the control, is a measure of incorporation into the filtered clots.

[2] = tested on: human plasma clots; assay: as above; assay type: biochemical; conditions: control vials without thrombin and calcium chloride, 60 minutes
Description: as §1, §2, §3

[3] = target: T2, Factor XIIIa (Homo sapiens, UniProt P00488); assay: Factor XIIIa dependency of incorporation (dimethylcasein uptake, normal vs Factor XIII deficient plasma); assay type: biochemical; conditions: 1 KBq/ml, 60 minutes; uptake in normal plasma minus Factor XIII deficient plasma
T2 construct: Factor XIII is transformed into its active form Factor XIIIa by thrombin in the presence of calcium ions; from tissue; host or cells: human plasma
T2 sequence (P00488 39-732 limits assumed): T1 sequence (P00488 39-732)
Description: The assay was changed by replacing the mercaptoethanol with aprotinin at a final concentration of 2 μg/ml, and dimethylcasein (DMC) was used instead of casein.

[4] = Normal rat biodistribution; assay type: in vivo; conditions: i.v., male Wistar rats, Mean±SD n=3
Description: The resolution of a clot image is dependant on the combination of rate of incorporation of the radiopharmaceutical and its blood/tissues clearance rate. For this reason the biodistribution of several compounds has been determined in rats. Male Wistar (100-150 g) rats were injected i.v. with 0.1-0.2 ml of radiolabelled tracer solution (8 MBq/ml) and dissected at different times post-injection. The % ID in each of the selected tissues was measured. Some animals were kept in metabolism cages to be able to determine the % ID excreted in urine and faeces. The dissection times used for the majority of the agents was 2, 15, 30, 60, 240 min. Data are shown as % ID, Mean±SD, (n=3).

[5] = tested on: clots induced in rat inferior vena cava; assay: Incorporation into clots induced in a rat model (rat inferior vena cava model); assay type: in vivo; conditions: rat IVC model; for Clot/Blood / Clot/Heart / Clot/Liver / Clot/Lung: 60 min; for % ID/g (clot uptake) / Relative conc (cpm/g of clot by dose/g animal): compound injected 5 min post-induction, clot removed after 60 min
Description: The rats (Male Wistar, 250-350 g) were anaesthetised with 15% urethane. After laparotomy, the vena cava was isolated and freed of surrounding fat tissue. […] The average weight of the clots formed in this model was around 27 mg, n=32, (5-50 mg range). The so compounds were injected 5 min post-induction. After 60 min the animals were sacrificed and the clot removed, weighed and counted. Other tissues e.g. blood, lung, heart, were also dissected and counted. The uptake of tracer into the clot was determined as the relative concentration (cpm/g of clot by dose/g animal ) and clot to background tissue.

## NCCCCCNS(=O)(=O)c1ccc(C(=O)NCCCNC(=O)c2ccc(NN)nc2)cc1 [Compound 24, N-[6-hydrazinopyridine-3-carbonyl]-N′-(4-N-(5-aminopentyl)amidosulphonyl)benzoyl propane-1,3-diamine]
[1]
  % specific uptake*: 13.8%
  % retained in plasma clot assay (with thrombin): 14%
[2]
  % retained in plasma clot assay (no thrombin): 0.2%
[3]
  % specific DMC casein uptake: 22.5%
[4]; 2 min post-injection
  % ID Blood: 18.2 ± 1.39 % ID
  % ID GI Tract: 7.48 ± 0.45 % ID
  % ID Heart: 0.73 + 0.1 % ID
  % ID Kidney: 10.2 ± 3.07 % ID
  % ID Liver: 5.38 ± 0.75 % ID
  % ID Lung: 1.99 ± 0.12 % ID
  % ID Muscle: 28.5 ± 0.25 % ID
  % ID Urine: 0.11 ± 0.1 % ID
[4]; 15 min post-injection
  % ID Blood: 7.11 ± 1.29 % ID
  % ID GI Tract: 23.3 ± 6.5 % ID
  % ID Heart: 0.3 + 0.08 % ID
  % ID Kidney: 4.11 ± 1.31 % ID
  % ID Liver: 6.7 ± 1.21 % ID
  % ID Lung: 0.78 ± 0.16 % ID
  % ID Muscle: 17.9 ± 4.38 % ID
  % ID Urine: 8.64 ± 5.6 % ID
[4]; 30 min post-injection
  % ID Blood: 3.86 ± 0.62 % ID
  % ID GI Tract: 31.5 ± 11.9 % ID
  % ID Heart: 0.13 + 0.03 % ID
  % ID Kidney: 2.52 ± 1.1 % ID
  % ID Liver: 3.67 ± 0.62 % ID
  % ID Lung: 0.39 ± 0.06 % ID
  % ID Muscle: 10.2 ± 1.09 % ID
  % ID Urine: 31.0 ± 9.41 % ID
[4]; 60 min post-injection
  % ID Blood: 1.6 ± 0.57 % ID
  % ID GI Tract: 38.8 ± 9.6 % ID
  % ID Heart: 0.06 + 0.03 % ID
  % ID Kidney: 1.4 ± 0.38 % ID
  % ID Liver: 1.6 ± 0.29 % ID
  % ID Lung: 0.18 ± 0.06 % ID
  % ID Muscle: 3.62 ± 0.9 % ID
  % ID Urine: 44.9 ± 7.32 % ID
[4]; 240 min post-injection
  % ID Blood: 0.29 ± 0.06 % ID
  % ID GI Tract: 46.3 ± 4.4 % ID
  % ID Heart: 0.02 + 0.01 % ID
  % ID Kidney: 0.92 ± 0.37 % ID
  % ID Liver: 0.3 ± 0.03 % ID
  % ID Lung: 0.05 ± 0.02 % ID
  % ID Muscle: 1.1 ± 0.32 % ID
  % ID Urine: 49.51 ± 4.62 % ID
[5]
  Clot/Blood: 1.8
  Clot/Heart: 3.9
  Clot/Liver: 0.93
  Clot/Lung: 2.5
  % ID/g (clot uptake): 0.21 ± 0.02 % ID/g
  Relative conc (cpm/g of clot by dose/g animal): 0.62 ± 0.1

## CC(=NO)C(C)(C)NCCN(CCNC(=O)c1ccc(S(=O)(=O)NCCCCCN)cc1)CCNC(C)(C)C(C)=NO [Compound 16, 3,3,11,11-tetramethyl-7-(4-N-(5-aminopentyl)-amidosulphonyl)benzamidoethyl-4,7,10-triazatridecane-2,12-dione dioxime]
[1]
  % specific uptake*: 1.2%
  % retained in plasma clot assay (with thrombin): 2%
[2]
  % retained in plasma clot assay (no thrombin): 0.8%
[3]
  % specific DMC casein uptake: 1%
[4]; 2 min post-injection
  % ID Blood: 17.8 ± 1.78 % ID
  % ID GI Tract: 6.61 ± 0.43 % ID
  % ID Heart: 0.44 ± 0.09 % ID
  % ID Kidney: 10.55 ± 1.1 % ID
  % ID Liver: 5.61 ± 0.23 % ID
  % ID Lung: 1.53 ± 0.12 % ID
  % ID Muscle: 32.9 ± 0.97 % ID
  % ID Urine: 1.74 ± 1.05 % ID
[4]; 30 min post-injection
  % ID Blood: 2.20 ± 0.5 % ID
  % ID GI Tract: 27.3 ± 3.45 % ID
  % ID Heart: 0.06 ± 0.01 % ID
  % ID Kidney: 3.47 ± 0.71 % ID
  % ID Liver: 5.15 ± 0.75 % ID
  % ID Lung: 0.31 ± 0.08 % ID
  % ID Muscle: 4.63 ± 0.25 % ID
  % ID Urine: 48.0 ± 2.22 % ID
[4]; 60 min post-injection
  % ID Blood: 0.38 ± 0.14 % ID
  % ID GI Tract: 31.6 ± 6.4 % ID
  % ID Heart: 0.01 ± 0.01 % ID
  % ID Kidney: 1.80 ± 0.65 % ID
  % ID Liver: 3.07 ± 0.47 % ID
  % ID Lung: 0.09 ± 0.03 % ID
  % ID Muscle: 1.51 ± 0.53 % ID
  % ID Urine: 58.2 ± 8.87 % ID
[4]; 240 min post-injection
  % ID Blood: 0.04 ± 0.04 % ID
  % ID GI Tract: 36.5 ± 1.5 % ID
  % ID Heart: 0.00 % ID
  % ID Kidney: 1.06 ± 0.06 % ID
  % ID Liver: 2.01 ± 0.11 % ID
  % ID Lung: 0.04 ± 0.00 % ID
  % ID Muscle: 0.55 ± 0.08 % ID
  % ID Urine: 58.9 ± 1.66 % ID
[5]
  Clot/Blood: 1.7
  Clot/Heart: 3.8
  Clot/Liver: 0.37
  Clot/Lung: 2.1
  % ID/g (clot uptake): 0.27 ± 0.06 % ID/g
  Relative conc (cpm/g of clot by dose/g animal): 0.93 ± 0.16
